Data published in US20180325825A1 (GEMPHIRE THERAPEUTICS INC., priority 2015, published 2018).

Key:
[1] = Pharmacokinetics of prototype combinations of atorvastatin and gemcabene after a single oral dose to male dogs; assay type: in vivo, male purebred beagle dogs; details: 150 mg gemcabene IR, composite data from all animals
[2] = background statement, cited from earlier work

- gemcabene pharmacokinetic profile in combination with atorvastatin prototype versus administered alone [1]: essentially the same
SMILES: CC(C)(CCCCOCCCCC(C)(C)C(=O)O)C(=O)O [gemcabene, 6,6′-oxybis(2,2-dimethylhexanoic acid)]
- completeness of intestinal absorption in absence or presence of food [2]: essentially unchanged
- effect on the pharmacokinetics of simvastatin and atorvastatin in vivo [2]: not to significantly affect
- absorption in the intestines ([2]; oral): almost complete absorption
